Laboratory results as given in ChEMBL document CHEMBL5154799, “Discovery of a Novel Stilbene Derivative as a Microtubule Targeting Agent Capable of Inducing Cell Ferroptosis” (J Med Chem, 2022).
Active and inactive are the calls of the source. The rule behind the calls is not given here.

Experiments:
A549 [1] = assay: Induction of apoptosis in human A549 cells assessed as early apoptotic cells at 200 nM after 24 hrs by annexin V-FITC/PI staining based flow cytometry analysis relative to control; format: functional
[2] = Oral bioavailability in ICR mouse at 10 mg/kg single administration measured for 24 hrs post treatment by LC-MS/MS analysis; format: ADME, organism-based; details: in vivo
[3] = Toxicity in human A549 cells xenografted in athymic nude BALB/c nude mouse assessed as morphological changes in heart at 10 mg/kg, ip measured after 30 days by H and E staining based histological analysis; format: organism-based; details: in vivo, 720 h, time 30 day
[4] = Toxicity in human A549 cells xenografted in athymic nude BALB/c nude mouse assessed as morphological changes in kidney at 10 mg/kg, ip measured after 30 days by H and E staining based histological analysis; format: organism-based; details: in vivo, 720 h, time 30 day
[5] = Tmax in ICR mouse at 10 mg/kg, po single administration measured for 24 hrs post treatment by LC-MS/MS analysis; format: ADME, organism-based; details: in vivo
A549 [6] = assay: Induction of apoptosis in human A549 cells assessed as cell viability pretreated with ferroptosis inhibitor ferrostatin-1 for 24 hrs followed by incubation with compound at 20 nM and measured after 48 hrs by CCK-8 assay; format: functional, cell-based
A549 [7] = assay: Cytotoxicity against human A549 cells assessed as reduction in cell viability; format: functional, cell-based
[8] = Cmax in ICR mouse at 10 mg/kg, po single administration measured for 24 hrs post treatment by LC-MS/MS analysis; format: ADME, organism-based; set-up: time 24 hrs, dose 10 mg/kg, route po; details: in vivo
[9] = Toxicity in human A549 cells xenografted in athymic nude BALB/c nude mouse assessed as morphological changes in spleen at 10 mg/kg, ip measured after 30 days by H and E staining based histological analysis; format: organism-based; details: in vivo, 720 h, time 30 day
[10] = Clearance in ICR mouse at 1 mg/kg, iv single administration measured for 24 hrs post treatment by LC-MS/MS analysis; format: ADME, organism-based; details: in vivo

For C=C(c1cc(OC)c(OC)c(OC)c1)c1ccc(OC)c(O)c1NC(=O)CO, the Activity (A549 [1]) was 50.36%, the bioavailability [2] was 69.5% and the Activity [3] was “Non-Toxic”. The Activity [4] was “Non-Toxic”, the Tmax [5] was 15 min and the Activity (A549 [6]) was “Active”. The IC50 (A549 [7]) was 10 nM, the Cmax [8] was 776 ng/mL and the Activity [9] was “Non-Toxic”. For the same molecule, the clearance [10] was 47.6 mL/min/kg.
